The values below come from US20250082598A1, “Melafenoxate, 2-(1-adamantylamino)ethyl 2-(4-chlorophenoxy)acetate and derivatives thereof for treating circadian rhythm sleep disorders with neurodegenerative diseases such as Alzheimer's disease” (NLS Pharmaceutics AG, priority 2021, published 2025).

For this assay, the target named is T1, RXFP3 (h) (Homo sapiens, UniProt Q9NSD7).
T1 sequence (Q9NSD7 1-469): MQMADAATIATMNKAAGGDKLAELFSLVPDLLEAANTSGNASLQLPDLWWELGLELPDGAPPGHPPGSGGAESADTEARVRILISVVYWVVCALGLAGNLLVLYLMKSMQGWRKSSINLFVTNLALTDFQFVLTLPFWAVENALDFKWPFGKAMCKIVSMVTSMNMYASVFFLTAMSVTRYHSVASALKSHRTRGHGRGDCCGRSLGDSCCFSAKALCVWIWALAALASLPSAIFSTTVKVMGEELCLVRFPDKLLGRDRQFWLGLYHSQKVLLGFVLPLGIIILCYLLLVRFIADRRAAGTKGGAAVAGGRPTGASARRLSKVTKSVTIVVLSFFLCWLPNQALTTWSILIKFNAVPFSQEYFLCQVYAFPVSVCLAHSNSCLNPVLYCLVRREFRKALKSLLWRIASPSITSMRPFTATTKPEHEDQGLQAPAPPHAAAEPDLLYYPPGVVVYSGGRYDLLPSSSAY
The experiment in a line: RXFP3 assay (Eurofins/LeadHunter, cAMP Hunter GPCR Biosensor). It counts as cell-based. On the procedure:
Melafenoxate is found to weakly bind with RXFP3 and RXFP4 receptors (Study FR095-0024749-Q Eurofins/leadHunter Jun. 25, 2021; unpublished data).
In these assays' compounds were tested in agonist and antagonist mode with the GPCR Biosensor Assays and match to this design:
• 1. CAMP Hunter cell lines were expanded from freezer stocks according to standard procedures. • 2. Cells were seeded in a total volume of 20 μL into white walled, 384-well microplates and incubated at 37° C. for the appropriate time prior to testing. • 3. cAMP modulation was determined using the DiscoverX HitHunter CAMP XS+assay.
• 1. For agonist determination, cells were incubated with sample to induce response. • 2. Media was aspirated from cells and replaced with 15 μL 2:1 HBSS/10 mM Hepes: CAMP XS+ Ab reagent. • 3. […]
• 1. […] Microplates were read following signal generation with a PerkinElmer Envision™ instrument for chemiluminescent signal detection.
• 1. Compound activity was analyzed using CBIS data analysis suite (ChemInnovation, CA). • 2. For Gs agonist mode assays, percentage activity is calculated using the following formula:
% Activity=100%×(mean RLU of test sample−mean RLU of vehicle control)/(mean RLU of MAX control−mean RLU of vehicle control). • 3. For Gs positive allosteric mode assays, percentage modulation is calculated using the following formula: http://www.eurofinsdiscoveryservices.com Confidential Jun. […]

Structures are written as SMILES.

One may read the % Inhibition as the share of the control response that was lost under treatment. For the compound `O=C(COc1ccc(Cl)cc1)OCCNC12CC3CC(CC(C3)C1)C2` [Melafenoxate, 2-(1-adamantylamino)ethyl 2-(4-chlorophenoxy)acetate], the “binding with RXFP3 receptor (in words)” value is listed as “weakly bind”. In addition, the “% Inhibition at 5*10^−5 M” value (5*10^−5 M) was 29.1%.
